According to ChEMBL document CHEMBL1201862, “PubChem BioAssay data set” (2004):
Active and inactive are the calls of the source. Cut-off read from the data, not from the text of the source, for most assays here: actives have a measured EC50 and inactives only a lower limit.

What was measured:
Leucine aminopeptidase = target: T1, Leucine aminopeptidase (Plasmodium falciparum 3D7, UniProt Q8IL11); assay: P. falciparum M17LAP inhibitors, primary screen, biochemical, fluorogenic H-Leu-NHMec substrate, 1536-well (AID 1619); type: functional
T1 sequence (Q8IL11 whole entry): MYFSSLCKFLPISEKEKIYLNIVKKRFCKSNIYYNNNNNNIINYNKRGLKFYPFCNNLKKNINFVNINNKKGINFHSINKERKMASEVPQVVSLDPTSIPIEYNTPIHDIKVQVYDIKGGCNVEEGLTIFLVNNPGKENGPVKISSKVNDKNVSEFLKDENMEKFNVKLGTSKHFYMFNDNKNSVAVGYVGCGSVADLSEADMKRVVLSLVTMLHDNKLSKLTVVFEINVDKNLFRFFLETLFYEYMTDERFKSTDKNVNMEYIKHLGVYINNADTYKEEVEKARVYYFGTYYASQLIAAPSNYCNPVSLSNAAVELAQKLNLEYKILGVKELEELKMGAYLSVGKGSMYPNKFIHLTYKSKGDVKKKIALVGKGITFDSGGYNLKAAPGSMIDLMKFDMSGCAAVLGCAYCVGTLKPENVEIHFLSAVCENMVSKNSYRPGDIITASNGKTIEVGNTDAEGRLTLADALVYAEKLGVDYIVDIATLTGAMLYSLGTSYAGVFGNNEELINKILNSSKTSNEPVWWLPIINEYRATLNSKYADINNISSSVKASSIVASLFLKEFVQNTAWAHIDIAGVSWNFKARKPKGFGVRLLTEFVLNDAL

Aminopeptidase N = target: T2, Aminopeptidase N (Plasmodium falciparum FcB1/Columbia, UniProt O96935); assay: malaria alanyl aminopeptidase activity blockers – biochemical, fluorogenic H-Leu-NHMec substrate, 1536-well (AID 1445); parameters: species or system Plasmodium falciparum 3D7, 3D7
T2 sequence (O96935 whole entry): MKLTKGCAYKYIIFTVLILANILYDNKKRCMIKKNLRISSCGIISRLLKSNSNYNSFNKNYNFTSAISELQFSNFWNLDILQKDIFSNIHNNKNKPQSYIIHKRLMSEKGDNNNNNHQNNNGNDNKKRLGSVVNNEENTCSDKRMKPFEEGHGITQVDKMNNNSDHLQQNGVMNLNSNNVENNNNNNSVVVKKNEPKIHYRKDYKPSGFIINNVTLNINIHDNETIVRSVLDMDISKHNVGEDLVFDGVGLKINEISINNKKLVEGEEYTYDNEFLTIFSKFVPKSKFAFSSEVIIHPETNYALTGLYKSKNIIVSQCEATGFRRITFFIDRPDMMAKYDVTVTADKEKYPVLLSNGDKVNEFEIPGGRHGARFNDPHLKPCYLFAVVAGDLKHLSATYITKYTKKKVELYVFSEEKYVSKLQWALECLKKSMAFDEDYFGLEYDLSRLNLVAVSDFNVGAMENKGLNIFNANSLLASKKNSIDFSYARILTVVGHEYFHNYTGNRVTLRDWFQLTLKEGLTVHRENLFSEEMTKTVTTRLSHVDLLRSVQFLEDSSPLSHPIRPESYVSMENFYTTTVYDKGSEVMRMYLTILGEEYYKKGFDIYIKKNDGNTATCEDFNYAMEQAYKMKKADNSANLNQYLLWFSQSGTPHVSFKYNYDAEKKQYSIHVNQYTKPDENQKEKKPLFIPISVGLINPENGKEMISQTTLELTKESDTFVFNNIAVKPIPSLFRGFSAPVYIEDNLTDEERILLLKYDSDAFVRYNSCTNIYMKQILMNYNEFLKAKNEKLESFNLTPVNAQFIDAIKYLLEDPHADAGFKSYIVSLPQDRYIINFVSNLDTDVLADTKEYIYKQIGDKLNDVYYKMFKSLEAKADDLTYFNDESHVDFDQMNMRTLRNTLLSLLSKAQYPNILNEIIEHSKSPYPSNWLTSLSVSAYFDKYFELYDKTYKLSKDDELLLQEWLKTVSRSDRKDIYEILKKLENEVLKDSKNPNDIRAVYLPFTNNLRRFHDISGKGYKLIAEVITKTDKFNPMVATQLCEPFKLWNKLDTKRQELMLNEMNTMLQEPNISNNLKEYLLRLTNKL

[1] = Trypanosoma cruzi growth suppression in host cells – NIH3T3 host cells, beta-gal luminescence, confirmation (AID 2044); type: functional, cell-based;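 note: intracellular parasites grown in NIH/3T3 mouse fibroblasts as host cells; luminescent beta-galactosidase reporter signal from transgenic T. cruzi replicating inside host cells; inhibitors lower the luminescence signal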
[2] = target: Voltage-dependent T-type calcium channel subunit alpha-1H (Homo sapiens, UniProt O95180); type: functional;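 note: channel activity triggered by adding a high calcium stimulation buffer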
[3] = NIH3T3 cell viability loss – ATP luminescence, mouse fibroblasts, counter-screen, dose response (AID 2010); type: functional, cell-based;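 note: cells exposed to compound for about 90 hours before reading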
[4] = NIH-3T3 fibroblast cytotoxicity, dose response, cytotoxicity control, cell-based, fluorescence, Alamar Blue, secondary assay (AID 2327); type: functional;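 note: NIH-3T3 mouse fibroblasts cultured with fluconazole at 8 µg/mL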
Streptococcus = assay: GAS UMAA2166 growth inhibition – luminescence, BacTiterGlo, counter-screen for streptokinase expression inhibitor project, dose response (AID 1915); type: functional, organism-based;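 note: potency for reduction of bacterial viability or growth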
[5] = system: Streptococcus sp. 'group A'; assay: Streptococcus pyogenes SK(-)GAS viability under kanamycin – luminescence, BacTiterGlo, confirmation, counter-screen for streptokinase expression inhibitor project, dose response (AID 1900); type: functional, organism-based
[6] = fluconazole-exposed Candida albicans growth modulators – fluorescence, retest, confirmation (AID 2467); type: functional, cell-based
[7] = target: Heat shock protein HSP 90-alpha (Homo sapiens, UniProt P07900); type: functional, organism-based
Streptokinase A = target: T3, Streptokinase A (Streptococcus pyogenes serotype M1, UniProt P10520); assay: viability-normalized secreted streptokinase activity reduction – plasminogen activation absorbance, OD405, dose response (AID 1914); type: functional, Streptococcus pyogenes M1 GAS;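 note: secreted streptokinase activity via plasminogen activation per viability signal from cell pellet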
T3 sequence (P10520 whole entry): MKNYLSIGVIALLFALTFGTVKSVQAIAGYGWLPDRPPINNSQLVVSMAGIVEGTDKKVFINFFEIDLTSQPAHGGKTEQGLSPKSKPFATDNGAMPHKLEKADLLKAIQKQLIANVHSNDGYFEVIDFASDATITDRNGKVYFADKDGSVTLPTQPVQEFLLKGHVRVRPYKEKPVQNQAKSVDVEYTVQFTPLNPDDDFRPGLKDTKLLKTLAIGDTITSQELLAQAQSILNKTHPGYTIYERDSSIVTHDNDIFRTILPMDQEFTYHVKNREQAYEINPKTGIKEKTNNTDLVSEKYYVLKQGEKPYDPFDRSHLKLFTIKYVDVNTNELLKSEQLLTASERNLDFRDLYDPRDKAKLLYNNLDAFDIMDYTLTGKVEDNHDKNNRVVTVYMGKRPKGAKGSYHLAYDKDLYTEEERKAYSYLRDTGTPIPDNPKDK

NS3 = NS3 (Hepatitis C virus, UniProt A3EZJ3); assay: PubChem AID 2173; parameters: species or system Hepacivirus hominis
[8] = alpha-synuclein stem-loop luciferase translation blockers – H4 neuroglioma cells, luminescence, confirmation (AID 1988); type: functional, cell-based
HT-1080 = assay: HT1080 cell viability loss – fluorescence readout (AID 620); type: functional, cell-based; conditions: Homo sapiens
[9] = HEK-293T cell viability reduction – luminescence, B-cell screen hits, cytotoxicity control for BCR NF-kB inhibitor project, dose response (AID 489021); type: functional, cell-based;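 note: HEK-293T cells carrying an NF-kB luciferase reporter; cells exposed to compound for about 14 hours before viability readout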
[10] = luciferase reporter signal suppression in cells – H4 neuroglioma cells, luminescence, dose response (AID 1990); type: functional, cell-based
[11] = target: T4, Luciferin 4-monooxygenase (Photinus pyralis, UniProt P08659); assay: Counter Screen for Luciferase-based Assay Positives. [Related pubchem assays: 620, 618, 411 ]
[12] = A Cell Based Secondary Assay To Explore Cytotoxicity of Compounds that Sensitize Mycobacterium Tuberculosis to Beta-Lactam Antibiotics.; type: functional
BJ [13] = assay: cells; type: functional, cell-based; conditions: Homo sapiens
[14] = Luminescence Cell-Based Dose Confirmation HTS to Identify Inhibitors of Platelet Dense Granule Release. [Related pubchem assays: 1663 (Primary HTS), 1678 (Summary of Project)]; type: functional
[15] = loss of viability in HepG2 cells – cell-based, CellTiter-Glo, cherry-picked, cytotoxicity control for Shn3 inhibitor project, dose response (AID 624134); type: functional
[16] = DRD fibroblast viability loss – cell-based, non-viral oncogenic, luminescence, dose response (AID 1934); type: functional; conditions: Homo sapiens
BJ [17] = assay: BJ-TERT fibroblast viability loss – cell-based, RAS-independent, luminescence, dose response (AID 1933); type: functional; conditions: Homo sapiens
[18] = reduction of Shn3 3'UTR-driven luciferase in osteoblasts – cell-based, Clone20 osteoblasts, firefly luciferase, cherry-picked, dose response (AID 624132); type: functional;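 note: firefly luciferase luminescence from reporter carrying the Shn3 3'UTR in osteoblasts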
BJ [19] = assay: BJ-TERT-LT-ST fibroblast viability loss – cell-based, RAS-independent, luminescence, dose response (AID 1935); type: functional; conditions: Homo sapiens;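 note: BJ fibroblasts immortalized with TERT plus LT and ST oncogenes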
[20] = target: T4, Luciferin 4-monooxygenase; assay: inhibition of purified Photinus pyralis luciferase – biochemical, luminescence, dose response (AID 1891)
[21] = HEK-293T viability loss after treatment – luminescence, T-cell screen hits, cytotoxicity control for TCR NF-kB inhibitor project, dose response (AID 489026); type: functional, cell-based;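 note: cells exposed to compound about 14 hours before the viability readout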
HEK293 = assay: EBV LMP1 TES2 canonical NF-kB signalling blockers – cell-based, HEK293, luciferase, cherry-pick, dose response (AID 588343); type: functional; conditions: Homo sapiens
INS1 = assay: INS-1E survival protection against cytokine death – cell-based, luminescence, retest, dose response (AID 449756); type: functional; conditions: Rattus norvegicus;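 note: cell death triggered by IL-1 beta plus TNF-alpha plus IFN-gamma mixture; protective hits raise ATP signal compared with cytokine alone wells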
[22] = Luminescence Cell-Based Dose Response HTS to Identify Inhibitors of 5'UTR Stem-Loop Driven Prion Protein mRNA Translation in H4 Neuroglioblastoma Cells. [Related pubchem assays: 1827 (Project Summary), 1813 (Primary HTS)]; type: functional
BJ [23] = assay: growth inhibition of engineered Ras-driven BJ cells – cell-based, alamar blue fluorescence, cherrypicked samples, dose response (AID 2631); type: functional; conditions: Homo sapiens;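 note: confirmatory dose-response assay in RAS-dependent BJ fibroblasts engineered with TERT, LT and ST, with cytotoxicity read by fluorescence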
[24] = viability of PTEN-deleted HCT116 cells – cell-based, HCT116 PTEN knockout, dose response (AID 1047); type: functional;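 note: HCT116 colon tumor cells with PTEN knocked out; cells exposed to compound for 60 hours before readout; potency for loss of cell viability measured by luminescence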
[25] = viability of HCT116 lacking mutant beta-catenin – cell-based, human colon tumor, dose response (AID 1045); type: functional;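 note: HCT116 colon tumor cells with beta catenin knocked out; cells exposed to compound for 60 hours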
[26] = HIV-1 Vif–A3G interaction blockers – biochemical, TR-FRET, GST-Vif 1-94, biotin-A3G peptide, dose response retest, primary screen (AID 1117319); type: functional;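 note: TR-FRET signal of purified GST-Vif binding a biotinylated A3G peptide; inhibitors lower the FRET signal by blocking Vif and A3G binding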
Escherichia coli = assay: microbe, parasite or virus in culture

T4 sequence (P08659 whole entry): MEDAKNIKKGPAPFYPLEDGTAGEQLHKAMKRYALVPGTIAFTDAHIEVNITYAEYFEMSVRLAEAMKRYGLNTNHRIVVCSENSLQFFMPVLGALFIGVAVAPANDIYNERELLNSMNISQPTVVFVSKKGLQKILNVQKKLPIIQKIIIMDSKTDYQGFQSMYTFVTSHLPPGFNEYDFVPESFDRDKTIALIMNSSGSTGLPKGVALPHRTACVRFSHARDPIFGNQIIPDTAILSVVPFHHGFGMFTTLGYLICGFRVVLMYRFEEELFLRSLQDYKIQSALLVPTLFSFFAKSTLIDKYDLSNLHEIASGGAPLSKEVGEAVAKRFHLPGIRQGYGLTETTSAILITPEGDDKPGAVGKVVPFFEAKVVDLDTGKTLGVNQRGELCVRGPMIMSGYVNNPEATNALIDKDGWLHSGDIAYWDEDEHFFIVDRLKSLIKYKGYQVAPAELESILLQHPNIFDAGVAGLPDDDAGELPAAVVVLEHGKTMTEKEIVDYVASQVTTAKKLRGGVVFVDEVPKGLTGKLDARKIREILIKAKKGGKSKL
Voltage-dependent T-type calcium channel subunit alpha-1H, sequence (O95180 whole entry): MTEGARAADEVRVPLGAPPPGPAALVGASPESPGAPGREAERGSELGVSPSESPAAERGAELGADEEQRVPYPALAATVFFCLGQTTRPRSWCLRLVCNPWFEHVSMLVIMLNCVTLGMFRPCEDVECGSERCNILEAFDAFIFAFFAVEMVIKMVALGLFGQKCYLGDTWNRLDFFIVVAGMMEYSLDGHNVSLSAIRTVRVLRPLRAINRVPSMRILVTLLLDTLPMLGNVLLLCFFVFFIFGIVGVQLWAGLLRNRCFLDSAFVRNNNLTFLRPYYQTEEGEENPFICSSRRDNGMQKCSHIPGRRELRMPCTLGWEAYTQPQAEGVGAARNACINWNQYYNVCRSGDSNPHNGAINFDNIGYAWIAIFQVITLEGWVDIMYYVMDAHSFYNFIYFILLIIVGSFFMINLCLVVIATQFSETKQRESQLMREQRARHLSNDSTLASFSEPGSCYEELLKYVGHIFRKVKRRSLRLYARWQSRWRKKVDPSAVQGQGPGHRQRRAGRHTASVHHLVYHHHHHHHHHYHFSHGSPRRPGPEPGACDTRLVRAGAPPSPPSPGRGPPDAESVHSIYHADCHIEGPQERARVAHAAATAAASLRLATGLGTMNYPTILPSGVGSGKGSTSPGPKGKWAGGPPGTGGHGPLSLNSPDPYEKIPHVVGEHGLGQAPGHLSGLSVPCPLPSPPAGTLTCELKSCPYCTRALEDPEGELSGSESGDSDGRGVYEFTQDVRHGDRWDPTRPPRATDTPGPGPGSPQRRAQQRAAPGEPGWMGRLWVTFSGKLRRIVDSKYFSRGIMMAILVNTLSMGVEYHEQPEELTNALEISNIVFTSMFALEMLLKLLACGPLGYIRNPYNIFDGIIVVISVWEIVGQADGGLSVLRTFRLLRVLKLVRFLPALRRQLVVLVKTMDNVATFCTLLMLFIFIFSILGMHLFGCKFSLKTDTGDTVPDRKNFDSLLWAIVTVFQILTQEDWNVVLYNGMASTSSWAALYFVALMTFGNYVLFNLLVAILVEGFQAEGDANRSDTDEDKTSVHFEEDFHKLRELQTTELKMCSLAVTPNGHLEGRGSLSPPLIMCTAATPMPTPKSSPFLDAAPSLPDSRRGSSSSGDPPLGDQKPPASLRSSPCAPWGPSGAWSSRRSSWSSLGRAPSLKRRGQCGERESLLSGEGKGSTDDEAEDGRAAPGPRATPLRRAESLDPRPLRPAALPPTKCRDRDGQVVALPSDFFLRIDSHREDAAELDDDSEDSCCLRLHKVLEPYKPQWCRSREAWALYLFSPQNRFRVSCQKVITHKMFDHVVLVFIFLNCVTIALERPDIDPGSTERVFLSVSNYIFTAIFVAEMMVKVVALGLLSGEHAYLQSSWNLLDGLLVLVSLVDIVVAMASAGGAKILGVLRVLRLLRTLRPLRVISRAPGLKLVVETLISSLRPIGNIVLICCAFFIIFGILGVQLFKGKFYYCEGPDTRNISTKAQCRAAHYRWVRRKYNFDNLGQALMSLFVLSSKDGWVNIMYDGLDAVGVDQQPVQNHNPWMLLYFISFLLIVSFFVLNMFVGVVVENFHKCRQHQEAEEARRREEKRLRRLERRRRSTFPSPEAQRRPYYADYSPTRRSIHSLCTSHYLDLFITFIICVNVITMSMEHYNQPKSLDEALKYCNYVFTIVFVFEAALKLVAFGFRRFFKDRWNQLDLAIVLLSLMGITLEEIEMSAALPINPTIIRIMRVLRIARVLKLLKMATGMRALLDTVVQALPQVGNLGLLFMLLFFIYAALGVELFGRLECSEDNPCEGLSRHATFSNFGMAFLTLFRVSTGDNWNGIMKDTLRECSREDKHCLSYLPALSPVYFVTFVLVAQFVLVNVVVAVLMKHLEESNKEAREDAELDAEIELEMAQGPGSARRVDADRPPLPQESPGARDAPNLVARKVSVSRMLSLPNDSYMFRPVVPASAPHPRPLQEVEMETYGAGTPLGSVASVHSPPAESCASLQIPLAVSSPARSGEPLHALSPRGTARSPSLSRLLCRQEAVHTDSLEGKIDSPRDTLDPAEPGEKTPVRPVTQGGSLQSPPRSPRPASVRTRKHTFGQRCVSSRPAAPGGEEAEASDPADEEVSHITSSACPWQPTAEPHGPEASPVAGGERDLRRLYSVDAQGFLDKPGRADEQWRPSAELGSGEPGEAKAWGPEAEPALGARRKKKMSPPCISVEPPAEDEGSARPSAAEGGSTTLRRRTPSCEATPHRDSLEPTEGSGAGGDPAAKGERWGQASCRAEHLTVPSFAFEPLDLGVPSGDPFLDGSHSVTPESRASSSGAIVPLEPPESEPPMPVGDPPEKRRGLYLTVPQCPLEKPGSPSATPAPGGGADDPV
NS3, sequence (A3EZJ3 whole entry): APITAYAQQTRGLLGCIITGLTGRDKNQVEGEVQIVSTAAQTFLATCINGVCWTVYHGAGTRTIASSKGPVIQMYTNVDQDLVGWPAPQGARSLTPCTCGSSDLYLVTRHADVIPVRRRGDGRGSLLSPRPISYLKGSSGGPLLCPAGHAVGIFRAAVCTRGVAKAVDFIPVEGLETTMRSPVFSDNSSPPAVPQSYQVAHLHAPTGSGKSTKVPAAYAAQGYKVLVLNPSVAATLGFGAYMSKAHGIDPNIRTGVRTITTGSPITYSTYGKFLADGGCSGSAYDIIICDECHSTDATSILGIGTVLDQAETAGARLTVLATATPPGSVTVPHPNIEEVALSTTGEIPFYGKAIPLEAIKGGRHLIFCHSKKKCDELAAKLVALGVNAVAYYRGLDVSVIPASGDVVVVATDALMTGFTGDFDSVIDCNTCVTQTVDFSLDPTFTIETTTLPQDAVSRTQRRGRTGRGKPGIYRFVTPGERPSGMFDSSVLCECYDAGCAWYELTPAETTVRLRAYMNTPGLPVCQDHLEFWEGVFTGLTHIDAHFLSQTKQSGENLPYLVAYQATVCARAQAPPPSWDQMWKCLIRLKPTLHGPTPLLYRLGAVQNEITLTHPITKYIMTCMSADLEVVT

O=C(NCc1ccccc1)c1ccc2c(=O)[nH]c3c(C(=O)NCC4CCCO4)sc(=S)n3c2c1 (stereo not drawn)
IC50 (Leucine aminopeptidase): 8.61 µM (active) | IC50 (Aminopeptidase N): 29.2 µM (active)

Cc1ccc(NC(=O)C(Cc2ccccc2)N2C(=O)C3C4CCC(C4)C3C2=O)cc1Cl (stereo not drawn)
EC50 [1]: 0.871 µM (active) | EC50 [2]: 5.73 µM (active) | EC50 [3]: > 60 µM (not active)

Cc1ccc(/C=C/C(=O)c2ccccc(=O)c2O)c(C)c1
EC50 [4]: > 160 µM (inactive) | EC50 (Streptococcus): 7.6 µM (active) | EC50 [5]: 5.22 µM (active) | EC50 [6]: 1.46 µM (active) | AC50 [7]: 2.05 µM (active) | EC50 (Streptokinase A): > 150 µM (not active) | IC50 (NS3): 2.9 µM (active)

Cc1nc2cc(-c3cccc(F)c3)nn2c(C)c1CCC(=O)NC(C)CCc1ccco1 (stereo not drawn)
EC50 [8]: 5.87 µM (active) | EC50 (HT-1080): > 50 µM (not active) | IC50 [9]: > 80 µM (inactive) | EC50 [10]: 2.36 µM (active) | EC50 [11]: 0.27 µM (active)

O=C1OC(c2ccco2)=N/C1=C\c1ccc(-c2cccc(C(F)(F)F)c2)o1
IC50 (NS3): 22.1 µM (not active)

O=C1N=C(N2CCCC2)S/C1=C\c1cccc(Br)c1
CC50 [12]: > 40 µM (active)

O=C(Nc1nc2nc(-c3ccccc3)cc(-c3ccccc3)n2n1)c1ccco1
IC50 [9]: > 80 µM (inactive)

COc1ccc(-c2csc(Nc3ncccc3C)n2)cc1OC
CC50 [12]: > 40 µM (active)

COc1cc(/C=C/C(=O)OCC(=O)Nc2cc(C)c(C)cc2[N+](=O)[O-])ccc1O
CC50 [12]: > 40 µM (active)

Cc1ccc(-c2nc(-c3ccccn3)no2)cc1
EC50 (BJ [13]): 5.39 µM (active) | EC50 [14]: 2.52 µM (active) | AC50 [15]: 8.99 µM (active) | EC50 [16]: 5.41 µM (active) | EC50 (BJ [17]): 7.04 µM (active) | EC50 (HT-1080): > 50 µM (not active) | AC50 [18]: 1.96 µM (active) | EC50 (BJ [19]): 17.4 µM (active) | EC50 [20]: 0.593 µM (active) | EC50 [11]: 0.81 µM (active) | IC50 [21]: > 80 µM (inactive)

Cc1ccc(-c2noc(CSc3nnc(Cc4ccccc4)n3-c3ccc(Cl)cc3)n2)cc1
EC50 [2]: 4.98 µM (active)

Cc1cccn2c(=O)c3cc(C(=O)NC4CCCCC4)c(=N)n(CCN4CCOCC4)c3nc12
IC50 [9]: > 80 µM (inactive)

ClCc1nnc(-c2ccccc2)o1
IC50 [9]: > 80 µM (inactive)

COc1cccc(C(=O)/C=C/Nc2cccc(O)c2)c1
EC50 [14]: 2.07 µM (active) | EC50 (HT-1080): > 50 µM (not active) | EC50 [20]: 1.38 µM (active) | EC50 [11]: 0.56 µM (active)

CCCCC/N=C\c1c(C)nn(-c2nc3ccccc3s2)c1O
EC50 [8]: 7.25 µM (active) | EC50 (BJ [13]): 2.32 µM (active) | AC50 (HEK293): 3.89 µM (active) | AC50 (INS1): 2.69 µM (active) | EC50 [16]: 2.01 µM (active) | EC50 (BJ [17]): 1.26 µM (active) | EC50 (HT-1080): > 50 µM (not active) | EC50 [22]: 6.84 µM (active) | EC50 [10]: 9.33 µM (inconclusive) | EC50 (BJ [19]): 4.84 µM (active) | EC50 (BJ [23]): > 133 µM (inactive) | EC50 [11]: 1.93 µM (active)

C/C(=N/NC(=O)c1ccc(Cl)s1)c1ccc(NC(=O)COc2ccc(Cl)cc2)cc1
EC50 [24]: 24 µM (active) | EC50 [25]: 22.2 µM (active) | CC50 [12]: > 40 µM (active)

CCc1ccc(-c2cc(C(=O)Nc3ccc(S(=O)(=O)NC(C)=O)cc3)c3ccccc3n2)cc1
IC50 [26]: > 100 µM (active) | IC50 (Leucine aminopeptidase): 7.8 µM (active) | AC50 (Escherichia coli): 38.6 µM (active)
